Results reported in US11299641B2, “Curable liquid composition, composition-accommodating container, liquid composition discharging device, cured material, and method of manufacturing cured material” (RICOH COMPANY, LTD., priority 2018, dated 2022).

Experiments:
female mice = experiment: skin sensitization test in accordance with the Local Lymph Node Assay (LLNA) method, SI value; type: in vivo; settings: test substance 50.0 w/v percent in acetone/olive oil 4 to 1, 25 μL per ear once a day for three days, BrdU intake
Protocol: The SI value was measured in the manner described below according to the skin sensitization test in accordance with the Local Lymph Node Assay (LLNA) method.
α-hexylcinnamaldehyde (HCA; product of FUJIFILM Wako Pure Chemical Corporation) was used as positive control material.
A liquid mixture containing acetone (product of FUJIFILM Wako Pure Chemical Corporation) and olive oil (product of Fudimi Pharmaceutical Co., Ltd.) in a volume ratio of 4 to 1 was used as medium.
For each of the test substances, the positive control, or the medium control, female mice were acclimated for 8 days including 6-day quarantine. No abnormalities were found in all the mice during the quarantine/acclimation period.
Based on the body weights measured two days before the initiation of sensitization, the mice were categorized into 2 groups (4 mice/group) by the body weight stratified random sampling method so that the body weight of each individual was within −20 to +20 percent of the average body weight of all the individuals. Each of the tested animals was 8 to 9 weeks old at the time of the initiation of sensitization. The individuals not classified into the groups were excluded from the test.
The group compositions of the medium control group and positive control group used for the measurement of the SI value are shown in Table 1.
The test substance was weighed in a measuring flask, and the volume of the test substance was adjusted to 1 mL while adding the medium. The thus-prepared test substance solution was placed in a light-shielded airtight container (made of glass).
The preparation solution and the medium of each test substance and positive control substance were applied to both ears of each animal in an amount of 25 μL for each. A micropipettor was used for application. The tested animals were subjected to this treatment once a day for three consecutive days.
About 48 hours after the final sensitization, the BrdU preparation solution (0.5 mL) was intraperitoneally administered once to each of the tested animals.
All the animals used for the test were observed once or more times a day from the day of the initiation of sensitization to the day of the removal of the auricular lymph node (i.e., the day when the animals were transferred from the animal room). […] Measurement of Body Weights The body weight of each of the tested animals was measured on the day of the initiation of sensitization and on the day of the removal of the auricular lymph node (i.e., the day when the animals were transferred from the animal room). Also, the weight average and the standard error for each group were calculated. Removal of Auricular Lymph Node and Measurement of Weight Thereof About 24 hours after the administration of BrdU, the tested animals were allowed to undergo euthanasia, and their auricular lymph nodes were sampled. The surrounding tissue of each auricular lymph node was removed, and the auricular lymph nodes from both the auricles were collectively weighed. Also, the weight average and the standard error of the auricular lymph nodes for each group were calculated. After the weight measurement, the auricular lymph nodes of each individual were stored in a frozen state using a BIO MEDICAL FREEZER set to −20 degrees C. Measurement of BrdU Intake After returning the auricular lymph nodes to room temperature, the auricular lymph nodes were mashed with the gradual addition of physiological saline, and suspended therein. The thus-obtained suspension was filtrated and thereafter dispensed into a 96-well microplate 3 wells by 3 wells per individual. The thus-dispensed suspensions were measured for intake of BrdU according to the ELISA method. The reagents used were a commercially available kit (Cell Proliferation ELISA, BrdU colorimetric, Cat. No. 1647229, product of Roche Diagnostics K.K.). […]

[1] = Safety Data Sheet; cited from earlier work

Molecule | SI value in the LLNA test (female mice) | skin sensitization, evaluation by SDS [1]
C=C(C)C(=O)OCCOCCOC(=O)C(=C)C [Example A1, Diethylene glycol dimethacrylate] | 1.1 | –
C=CC(=O)OCCCCCCCCCCCCCCCC(C)C [Example A5, Isostearyl acrylate] | 1.4 | –
C=C(C)C(=O)OCC(CO)OC(=O)C(=C)C (stereo not drawn) [Example A7, Glycerol dimethacrylate] | 1.2 | –
C=C(C)C(=O)OCC(O)CO (stereo not drawn) [Example A8, Glycerol monomethacrylate] | 1.1 | –
CC(C)(O)C(=O)c1ccc(OCCO)cc1 [Example B1, 1-[4-(2-hydroxyethoxy)-phenyl]-2-hydroxy-2-methyl-1-propane-1-one] | – | none
CCC(Cc1ccccc1)(C(=O)c1ccc(N2CCOCC2)cc1)N(C)C (stereo not drawn) [Example B3, 2-(dimethylamino)-1-(4-morpholinophenyl)-2-benzyl-1-butanone] | 10 | –
Caprolactone-modified dipentaerythritol hexaacrylate [Example A2] | – | none
Polypropylene glycol diacrylate [Example A4] | 1.5 | –
Tricyclodecanedimethanol dimethacrylate [Example A6] | 1.3 | –
